This is an account of results in ChEMBL document CHEMBL4043168, “The design and SAR of a novel series of 2-aminopyridine based LRRK2 inhibitors” (Bioorg Med Chem Lett, 2017).

SMILES strings stand for the structures.

One data set relates to MDR1. Description: Apparent permeability in MDCK cells harboring MDR1. The following applies: dog. Format: ADME, cell-based, Canis lupus familiaris.
For data set [1], the target named is Tyrosine-protein kinase ABL1 (Homo sapiens) (UniProt P00519). The experiment in a line: Inhibition of ABL labeling at activation Loop (LMTGDTYTAHAGAKFPIK) in human PBMC at 1 uM.
Data set [2] concerns the target RAC-beta serine/threonine-protein kinase (Homo sapiens) (UniProt P31751). The experiment in a line: Inhibition of AKT2 labeling at ATP binding site (GTFGKVILVR) in human PBMC at 1 uM.
The target in data set [3] is Tyrosine-protein kinase BTK (Homo sapiens) (UniProt Q06187). The experiment in a line: Inhibition of BTK labeling at activation Loop (YVLDDEYTSSVGSKFPVR) in human PBMC at 1 uM.
The target of data set [4] is T1, Inhibitor of nuclear factor kappa-B kinase subunit epsilon (Homo sapiens) (UniProt Q14164).
T1 sequence (whole entry): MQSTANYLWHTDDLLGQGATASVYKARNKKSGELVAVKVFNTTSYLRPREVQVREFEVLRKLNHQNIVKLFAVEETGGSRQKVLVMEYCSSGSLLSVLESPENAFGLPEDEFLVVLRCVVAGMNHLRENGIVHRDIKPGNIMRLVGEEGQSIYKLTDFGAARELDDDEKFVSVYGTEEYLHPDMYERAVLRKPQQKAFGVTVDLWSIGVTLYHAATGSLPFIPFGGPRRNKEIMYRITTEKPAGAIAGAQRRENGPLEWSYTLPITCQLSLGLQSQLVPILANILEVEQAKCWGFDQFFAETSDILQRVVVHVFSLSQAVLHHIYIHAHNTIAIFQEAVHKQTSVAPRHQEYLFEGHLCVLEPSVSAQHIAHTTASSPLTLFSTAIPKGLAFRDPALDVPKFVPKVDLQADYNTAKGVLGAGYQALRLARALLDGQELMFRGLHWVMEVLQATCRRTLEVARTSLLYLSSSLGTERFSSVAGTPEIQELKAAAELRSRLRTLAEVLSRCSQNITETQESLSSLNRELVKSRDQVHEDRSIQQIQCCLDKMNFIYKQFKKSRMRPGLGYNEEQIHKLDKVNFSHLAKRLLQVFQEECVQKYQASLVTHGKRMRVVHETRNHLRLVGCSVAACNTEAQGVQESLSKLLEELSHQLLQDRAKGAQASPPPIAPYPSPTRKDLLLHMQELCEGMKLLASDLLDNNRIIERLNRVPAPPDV
The experiment in a line: Inhibition of IKKe conserved Lys1 (SGELVAVKVFNTTSYLRPR) in human PBMC at 1 uM.

Data set [5] has as its target Mitogen-activated protein kinase kinase kinase 1 (Homo sapiens) (UniProt Q13233). The experiment in a line: Inhibition of MAP3K1 conserved Lys2 (DVKGANLLIDSTGQR) in human PBMC at 1 uM.
The target of data set [6] is T2, Phosphatidylinositol 4,5-bisphosphate 3-kinase catalytic subunit delta isoform (Homo sapiens) (UniProt O00329).
T2 sequence (whole entry): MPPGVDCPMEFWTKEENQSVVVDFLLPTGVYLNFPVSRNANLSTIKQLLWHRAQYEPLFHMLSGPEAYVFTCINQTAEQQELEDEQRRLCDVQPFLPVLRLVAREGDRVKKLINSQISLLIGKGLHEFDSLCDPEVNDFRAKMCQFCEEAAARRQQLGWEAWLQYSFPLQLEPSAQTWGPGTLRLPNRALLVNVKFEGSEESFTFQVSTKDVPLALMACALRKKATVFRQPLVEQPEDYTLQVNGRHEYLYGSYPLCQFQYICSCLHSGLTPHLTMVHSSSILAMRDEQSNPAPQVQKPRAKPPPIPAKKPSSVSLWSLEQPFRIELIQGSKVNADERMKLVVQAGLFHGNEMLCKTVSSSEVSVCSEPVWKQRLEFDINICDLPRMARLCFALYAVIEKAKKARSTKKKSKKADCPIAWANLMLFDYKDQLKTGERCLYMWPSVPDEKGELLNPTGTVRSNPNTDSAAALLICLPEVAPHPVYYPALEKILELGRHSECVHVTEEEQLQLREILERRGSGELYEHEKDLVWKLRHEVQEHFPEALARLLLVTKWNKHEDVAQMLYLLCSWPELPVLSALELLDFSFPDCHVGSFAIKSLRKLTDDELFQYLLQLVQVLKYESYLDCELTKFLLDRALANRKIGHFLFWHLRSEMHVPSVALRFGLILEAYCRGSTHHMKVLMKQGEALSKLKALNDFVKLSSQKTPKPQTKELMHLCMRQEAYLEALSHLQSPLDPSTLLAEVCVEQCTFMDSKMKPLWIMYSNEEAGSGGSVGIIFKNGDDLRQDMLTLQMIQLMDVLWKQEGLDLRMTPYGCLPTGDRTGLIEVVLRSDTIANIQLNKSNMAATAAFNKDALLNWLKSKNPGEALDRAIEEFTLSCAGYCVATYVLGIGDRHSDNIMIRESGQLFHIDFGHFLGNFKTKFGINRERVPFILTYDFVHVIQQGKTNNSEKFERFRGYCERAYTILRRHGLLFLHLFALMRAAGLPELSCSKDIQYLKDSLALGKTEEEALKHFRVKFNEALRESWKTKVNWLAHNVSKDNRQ
The experiment in a line: Inhibition of PIK3CD ATP binding site (TKVNWLAHNVSKDNRQ) in human PBMC at 1 uM.

Data set [7] concerns the target Serine/threonine-protein kinase WNK2 (Homo sapiens) (UniProt Q9Y3S1). The experiment in a line: Inhibition of Wnk2 activation Loop (IGDLGLATLKR) in human PBMC at 1 uM.
Data set [8] deals with Serine/threonine-protein kinase 32C (Homo sapiens) (UniProt Q86UX6). Description: Inhibition of YANK3 conserved Lys2 (DVKPDNILLDER) in human PBMC at 1 uM.
Data set [9] addresses T1, Inhibitor of nuclear factor kappa-B kinase subunit epsilon (Homo sapiens). The experiment in a line: Inhibition of IKKe conserved Lys2 (DIKPGNIMR) in human PBMC at 0.1 uM.
Data set [10] deals with Mitogen-activated protein kinase kinase kinase 4 (Homo sapiens) (UniProt Q9Y6R4). Description: Inhibition of MAP3K4 conserved Lys2 (DIKGANIFLTSSGLIK) in human PBMC at 0.1 uM.
The target of data set [11] is MAP/microtubule affinity-regulating kinase 4 (Homo sapiens) (UniProt Q96L34). The experiment in a line: Inhibition of MARK4 conserved Lys1 (EVAIKIIDK) in human PBMC at 0.1 uM.
Data set [12] addresses Serine/threonine-protein kinase SIK2 (Homo sapiens) (UniProt Q9H0K1). Description: Inhibition of QIK conserved Lys1 (EVAIKIIDK) in human PBMC at 0.1 uM.
Data set [13] concerns the target Serine/threonine-protein kinase Nek4 (Homo sapiens) (UniProt P51957). The experiment in a line: Inhibition of NEK4 conserved Lys2 (DLKTQNVFLTR) in human PBMC at 0.1 uM.
The target in data set [14] is Serine/threonine-protein kinase Nek7 (Homo sapiens) (UniProt Q8TDX7). The experiment in a line: Inhibition of NEK7 conserved Lys2 (DIKPANVFITATGVVK) in human PBMC at 0.1 uM.
The target in data set [15] is Mitogen-activated protein kinase 12 (Homo sapiens) (UniProt P53778). Description: Inhibition of p38g conserved Lys2 (DLKPGNLAVNEDCELK) in human PBMC at 0.1 uM.

Broadly, the Papp is the rate of passage across a membrane or cell layer, normalised by area and donor concentration. In general, inhibition refers to the drop in the measured response relative to a control, in per cent.

RAC-beta serine/threonine-protein kinase (Homo sapiens), sequence (P31751 whole entry): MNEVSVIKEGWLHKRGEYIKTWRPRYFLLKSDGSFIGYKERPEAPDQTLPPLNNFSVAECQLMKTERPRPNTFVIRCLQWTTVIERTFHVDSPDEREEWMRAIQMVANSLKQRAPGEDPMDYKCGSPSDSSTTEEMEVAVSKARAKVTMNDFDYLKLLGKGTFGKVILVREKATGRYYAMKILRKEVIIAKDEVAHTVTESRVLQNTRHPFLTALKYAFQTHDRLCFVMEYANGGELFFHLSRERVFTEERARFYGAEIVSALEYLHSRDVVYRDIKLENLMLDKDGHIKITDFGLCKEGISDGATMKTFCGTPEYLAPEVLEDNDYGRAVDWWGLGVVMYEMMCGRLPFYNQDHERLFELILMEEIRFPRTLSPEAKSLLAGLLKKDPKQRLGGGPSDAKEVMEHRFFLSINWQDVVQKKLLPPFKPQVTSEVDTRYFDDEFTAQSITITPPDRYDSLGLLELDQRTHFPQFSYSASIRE
Serine/threonine-protein kinase Nek4 (Homo sapiens), sequence (P51957 whole entry, looked up): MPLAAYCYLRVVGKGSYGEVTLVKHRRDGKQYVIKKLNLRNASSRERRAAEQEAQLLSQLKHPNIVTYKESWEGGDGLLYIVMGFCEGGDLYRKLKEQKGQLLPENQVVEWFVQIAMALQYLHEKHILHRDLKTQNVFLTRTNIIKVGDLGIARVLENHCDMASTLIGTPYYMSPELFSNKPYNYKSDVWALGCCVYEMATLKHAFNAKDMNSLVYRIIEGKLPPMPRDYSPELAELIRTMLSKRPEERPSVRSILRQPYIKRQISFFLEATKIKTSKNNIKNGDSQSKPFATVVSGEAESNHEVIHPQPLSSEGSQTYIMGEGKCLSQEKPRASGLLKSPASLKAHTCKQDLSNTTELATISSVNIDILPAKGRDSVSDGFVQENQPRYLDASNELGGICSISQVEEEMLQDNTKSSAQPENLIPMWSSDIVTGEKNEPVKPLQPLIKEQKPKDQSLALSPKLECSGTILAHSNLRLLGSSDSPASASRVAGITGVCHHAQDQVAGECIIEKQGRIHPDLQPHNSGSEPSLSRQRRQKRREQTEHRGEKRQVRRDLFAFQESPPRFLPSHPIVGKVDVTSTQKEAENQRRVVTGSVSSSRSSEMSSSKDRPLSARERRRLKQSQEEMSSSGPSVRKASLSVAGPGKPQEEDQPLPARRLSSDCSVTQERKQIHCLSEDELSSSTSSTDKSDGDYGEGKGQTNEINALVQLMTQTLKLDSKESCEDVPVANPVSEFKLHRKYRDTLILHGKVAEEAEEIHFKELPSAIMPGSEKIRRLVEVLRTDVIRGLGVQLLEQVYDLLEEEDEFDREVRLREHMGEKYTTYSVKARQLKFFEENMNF
Mitogen-activated protein kinase kinase kinase 1 (Homo sapiens), sequence (Q13233 whole entry, canonical isoform): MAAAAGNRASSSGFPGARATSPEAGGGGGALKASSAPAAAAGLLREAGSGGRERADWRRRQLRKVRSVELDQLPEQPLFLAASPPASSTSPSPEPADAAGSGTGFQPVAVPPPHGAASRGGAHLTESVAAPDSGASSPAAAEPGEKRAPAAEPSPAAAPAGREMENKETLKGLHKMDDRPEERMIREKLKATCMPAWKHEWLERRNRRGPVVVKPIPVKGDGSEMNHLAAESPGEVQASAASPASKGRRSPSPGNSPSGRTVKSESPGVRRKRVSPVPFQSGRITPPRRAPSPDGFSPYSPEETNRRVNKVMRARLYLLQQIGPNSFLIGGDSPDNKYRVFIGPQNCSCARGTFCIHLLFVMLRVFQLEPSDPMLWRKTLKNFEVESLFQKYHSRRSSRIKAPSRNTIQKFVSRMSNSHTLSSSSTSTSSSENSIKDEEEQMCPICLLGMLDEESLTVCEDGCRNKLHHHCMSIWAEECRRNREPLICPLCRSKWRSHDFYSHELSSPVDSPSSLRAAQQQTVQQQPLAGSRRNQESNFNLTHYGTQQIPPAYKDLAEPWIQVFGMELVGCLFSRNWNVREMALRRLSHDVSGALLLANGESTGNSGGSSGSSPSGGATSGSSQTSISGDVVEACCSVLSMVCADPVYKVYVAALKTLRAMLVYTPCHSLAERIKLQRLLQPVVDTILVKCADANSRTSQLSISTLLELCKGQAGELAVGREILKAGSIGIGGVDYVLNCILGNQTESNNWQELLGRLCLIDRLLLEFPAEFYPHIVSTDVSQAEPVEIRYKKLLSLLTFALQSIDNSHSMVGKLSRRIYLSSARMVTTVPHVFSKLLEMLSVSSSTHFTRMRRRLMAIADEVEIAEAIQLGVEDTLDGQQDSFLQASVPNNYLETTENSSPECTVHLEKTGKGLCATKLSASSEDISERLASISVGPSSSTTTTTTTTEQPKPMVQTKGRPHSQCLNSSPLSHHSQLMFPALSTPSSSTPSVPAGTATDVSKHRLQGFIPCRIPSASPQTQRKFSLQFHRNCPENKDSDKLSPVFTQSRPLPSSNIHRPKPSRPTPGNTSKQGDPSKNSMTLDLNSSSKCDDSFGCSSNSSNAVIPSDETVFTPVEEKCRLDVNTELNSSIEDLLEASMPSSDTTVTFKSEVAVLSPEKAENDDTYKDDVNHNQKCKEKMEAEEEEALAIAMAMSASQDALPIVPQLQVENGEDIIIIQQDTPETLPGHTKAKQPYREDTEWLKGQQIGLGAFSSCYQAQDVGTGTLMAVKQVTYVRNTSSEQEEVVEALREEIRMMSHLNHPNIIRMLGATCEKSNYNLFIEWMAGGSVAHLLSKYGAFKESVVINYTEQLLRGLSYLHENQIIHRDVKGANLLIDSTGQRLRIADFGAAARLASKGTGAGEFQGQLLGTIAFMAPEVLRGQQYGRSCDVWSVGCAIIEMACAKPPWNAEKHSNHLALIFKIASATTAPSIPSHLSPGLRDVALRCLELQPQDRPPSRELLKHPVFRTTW
Tyrosine-protein kinase ABL1 (Homo sapiens), sequence (P00519 whole entry): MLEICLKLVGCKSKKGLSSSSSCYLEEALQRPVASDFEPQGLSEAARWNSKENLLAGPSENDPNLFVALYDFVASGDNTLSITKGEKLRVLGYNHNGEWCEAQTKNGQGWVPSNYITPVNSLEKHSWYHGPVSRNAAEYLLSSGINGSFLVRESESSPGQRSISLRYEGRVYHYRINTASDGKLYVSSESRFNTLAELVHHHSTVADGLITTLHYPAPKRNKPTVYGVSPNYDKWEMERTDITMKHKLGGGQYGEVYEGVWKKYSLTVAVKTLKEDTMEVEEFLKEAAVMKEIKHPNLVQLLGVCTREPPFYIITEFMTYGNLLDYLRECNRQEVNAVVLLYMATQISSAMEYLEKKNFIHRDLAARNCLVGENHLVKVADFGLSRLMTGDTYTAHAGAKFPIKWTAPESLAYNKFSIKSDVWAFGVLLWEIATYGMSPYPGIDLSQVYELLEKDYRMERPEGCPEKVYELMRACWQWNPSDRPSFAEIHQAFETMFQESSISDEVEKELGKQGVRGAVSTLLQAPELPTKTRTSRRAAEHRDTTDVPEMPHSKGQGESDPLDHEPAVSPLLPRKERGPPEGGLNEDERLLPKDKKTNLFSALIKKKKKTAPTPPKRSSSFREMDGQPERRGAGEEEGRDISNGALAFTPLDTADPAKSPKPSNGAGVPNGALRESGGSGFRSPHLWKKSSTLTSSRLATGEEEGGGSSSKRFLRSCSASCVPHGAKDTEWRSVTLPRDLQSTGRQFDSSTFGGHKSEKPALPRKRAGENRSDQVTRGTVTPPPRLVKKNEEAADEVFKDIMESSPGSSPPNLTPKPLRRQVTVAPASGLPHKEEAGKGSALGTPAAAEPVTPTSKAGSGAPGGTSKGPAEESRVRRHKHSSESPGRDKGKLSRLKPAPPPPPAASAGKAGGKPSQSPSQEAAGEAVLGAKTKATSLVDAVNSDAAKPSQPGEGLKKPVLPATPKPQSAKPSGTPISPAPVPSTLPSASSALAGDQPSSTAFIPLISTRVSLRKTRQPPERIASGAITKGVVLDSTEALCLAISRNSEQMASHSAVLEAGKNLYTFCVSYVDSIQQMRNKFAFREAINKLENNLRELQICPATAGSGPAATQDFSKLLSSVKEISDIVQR
MAP/microtubule affinity-regulating kinase 4 (Homo sapiens), sequence (Q96L34 whole entry): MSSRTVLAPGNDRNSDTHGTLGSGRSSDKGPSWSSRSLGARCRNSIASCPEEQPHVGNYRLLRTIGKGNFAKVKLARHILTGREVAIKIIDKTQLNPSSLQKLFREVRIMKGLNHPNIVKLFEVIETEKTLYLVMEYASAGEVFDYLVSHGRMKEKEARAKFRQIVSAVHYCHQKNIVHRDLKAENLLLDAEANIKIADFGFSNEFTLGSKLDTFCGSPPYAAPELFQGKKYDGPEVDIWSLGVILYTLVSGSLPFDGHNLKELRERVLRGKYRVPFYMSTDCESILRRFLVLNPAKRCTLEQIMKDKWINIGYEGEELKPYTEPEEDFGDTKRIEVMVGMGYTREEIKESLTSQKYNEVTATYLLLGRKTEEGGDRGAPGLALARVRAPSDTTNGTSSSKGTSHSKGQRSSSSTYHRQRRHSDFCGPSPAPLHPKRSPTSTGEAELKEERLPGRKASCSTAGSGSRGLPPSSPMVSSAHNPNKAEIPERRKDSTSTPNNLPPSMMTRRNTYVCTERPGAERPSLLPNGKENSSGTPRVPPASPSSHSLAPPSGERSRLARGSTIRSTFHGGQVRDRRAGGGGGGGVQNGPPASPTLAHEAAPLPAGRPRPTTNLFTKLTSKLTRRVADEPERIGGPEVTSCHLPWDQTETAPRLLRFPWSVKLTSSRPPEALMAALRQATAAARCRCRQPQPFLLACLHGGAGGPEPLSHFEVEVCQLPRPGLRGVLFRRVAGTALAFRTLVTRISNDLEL
Mitogen-activated protein kinase 12 (Homo sapiens), sequence (P53778 whole entry): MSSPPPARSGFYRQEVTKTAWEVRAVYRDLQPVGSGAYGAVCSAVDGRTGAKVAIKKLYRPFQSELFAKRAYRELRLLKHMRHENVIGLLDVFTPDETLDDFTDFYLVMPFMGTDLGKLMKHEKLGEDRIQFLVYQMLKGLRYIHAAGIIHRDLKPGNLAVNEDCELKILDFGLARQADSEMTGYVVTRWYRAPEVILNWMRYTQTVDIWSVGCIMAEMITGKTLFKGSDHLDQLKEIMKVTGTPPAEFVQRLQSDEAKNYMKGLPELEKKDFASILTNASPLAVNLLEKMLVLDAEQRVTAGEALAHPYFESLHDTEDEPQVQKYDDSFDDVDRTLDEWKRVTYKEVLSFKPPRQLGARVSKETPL

In the case of `CC(C)n1cc(-c2cc(-c3ccc(CN4CCOCC4)cc3)cnc2N)nn1`, the Papp in the data set with MDR1 came to 26.3 ×10⁻⁶ cm/s. The inhibition was 34.8% in [1]; 20.5% in data set [2]; 17.4% in [3]; 5.5% in data set [4]; 83.3% in [5]; 4% in data set [6]. For the same compound, the inhibition in data set [7] was 21.9%; in data set [8], -2.1%; in data set [9] it was 21.7%; in [10], 3.8%; in data set [11], -6.7%; in data set [12], -6.7%. In addition, the inhibition in data set [13] is 5.6%; in data set [14] it was -4.8%; in data set [15], 26.4%.
